T1: CIB1 (Arabidopsis thaliana, UniProt Q8GY61)
T1 sequence (Q8GY61 1-335): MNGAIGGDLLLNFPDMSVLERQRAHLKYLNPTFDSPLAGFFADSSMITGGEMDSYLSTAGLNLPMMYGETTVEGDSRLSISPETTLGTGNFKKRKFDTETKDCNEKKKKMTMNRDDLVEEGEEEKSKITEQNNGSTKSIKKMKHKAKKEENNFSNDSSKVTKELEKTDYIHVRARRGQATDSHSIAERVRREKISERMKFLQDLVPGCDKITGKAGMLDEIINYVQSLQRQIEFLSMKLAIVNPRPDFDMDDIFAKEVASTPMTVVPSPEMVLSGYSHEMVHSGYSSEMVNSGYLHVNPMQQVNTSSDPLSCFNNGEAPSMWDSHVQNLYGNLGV

B1: Cry2: Arabidopsis thaliana Cryptochrome 2 photoreceptor binding CIB1 in a blue light-specific manner (protein)
chain: MKMDKKTIVWFRRDLRIEDNPALAAAAHEGSVFPVFIWCPEEEGQFYPGRASRWWMKQSLAHLSQSLKALGSDLTLIKTHNTISAILDCIRVTGATKVVFNHLYDPVSLVRDHTVKEKLVERGISVQSYNGDLLYEPWEIYCEKGKPFTSFNSYWKKCLDMSIESVMLPPPWRLMPITAAAEAIWACSIEELGLENEAEKPSNALLTRAWSPGWSNADKLLNEFIEKQLIDYAKNSKKVVGNSTSLLSPYLHFGEISVRHVFQCARMKQIIWARDKNSEGEESADLFLRGIGLREYSRYICFNFPFTHEQSLLSHLRFFPWDADVDKFKAWRQGRTGYPLVDAGMRELWATGWMHNRIRVIVSSFAVKFLLLPWKWGMKYFWDTLLDADLECDILGWQYISGSIPDGHELDRLDNPALQGAKYDPEGEYIRQWLPELARLPTEWIHHPWDAPLTVLKASGVELGTNYAKPIVDIDTARELLAKAISRTREAQIMIGAAPDEIVADSFEALGANTIKEPGLCPSVSSNDQQVPSAVRYNGSKRVKPEEEEERDMKKSRGFDERELFSTAESSSSSSVFFVSQSCSLASEGKNLEGIQDSSDQITTSLGKNGCK
modifications: Cry2

Experiments:
[1] = tested on: brain neurons of mouse pups; assay: Light- and Dox-dependent luciferase expression in brain neurons of mouse pups; format: in vivo; conditions: PA-Tet-OFF system; after single dosing of Dox 0.1 mg/g
Experimental: For irradiating the brains of mouse pups with light, anesthetized mice were stimulated through an optical fiber using a blue LED (PLEXBRIGHT®, manufactured by Plexon Inc). After being irradiated with blue light (40 W/m^2; pulsed for 1 second every 15 seconds; continued for 3 hours), the mice were immediately sacrificed, the right brain irradiated with blue light was immediately extracted and lysed, and the luciferase activity thereof was measured.
The mice were treated with Dox. For long-term Dox administration, drinking water containing 1 mg/mL Dox in a 5% by mass sucrose solution was given to the mice. […]
Next, Dox-dependent inhibition of transcriptional activity of the PA-Tet-OFF system in brain neurons was analyzed. […] The luminescence signal intensity induced by the luciferase expression in the brain cells after the light irradiation treatment was measured. Furthermore, for mice treated with Dox (0.1 mg/g (body weight)) 1 hour before the light irradiation treatment, the luminescence signal intensity was also measured in the same manner. In the mouse brain neurons (represented by “Light” in FIG. 25) subjected to the light irradiation treatment, luciferase expression was activated, and the luminescence signal intensity increased. […]
Furthermore, the restoration of light-inducible transcriptional activity after removal of Dox was analyzed in cells transfected with the PA-Tet-OFF system. […]

[2] = tested on: pTREtight-Ub-ELuc reporter in HEK293T cells; assay: Relationship between Dox concentration and induced gene expression level (FIG. 7); format: cell-based, human
Experimental: In order to analyze the relationship between the Dox concentration and the induced gene expression level, HEK293T cells were seeded in a 24-well plate at 5 to 9×10^4 cells/well, transfected, and assayed in the same manner as in candidate construct screening. Dox was applied to the cells at concentrations of 0, 1, 7.5, 15, 20, 50, and 100 ng/mL for the PA-Tet-OFF constructs and at concentrations of 0, 10, 15, 20, 30, 35, 40, 50, 75, 100, and 250 ng/mL for the PA-Tet-ON constructs. The cells were irradiated with blue light (7.2 W/m^2; pulsed for 2 seconds every minute) for 3 hours.
In addition, for the PA-Tet-OFF system using the PA-Tet-OFF-T2A construct and the PA-Tet-independent system using the PA-Tet-H100Y construct, the influence of DOx concentration on the PA-Tet-controlled expression efficiency was investigated. Furthermore, for the PA-Tet-ON system using a construct obtained by introducing a V10 mutation into the PA-Tet-OFF-T2A construct (PA-Tet-ON-T2A construct), the influence of Dox concentration on the PA-Tet-controlled expression efficiency was investigated. The data represent mean±standard deviation (n=3) obtained from one experiment. In FIGS. 7(A) and 7(B), “*” means p<0.05 (paired student's t-test).

[3] = tested on: pTREtight-Ub-ELuc reporter in HEK293T cells; assay: Relationship between Dox concentration and gene expression induction, near-infrared light (Table 9); format: cell-based, human; parameters: scale not given here; conditions: 25 μM BV; for Light: near-infrared light 750 nm
Experimental: Next, for QT4, QT7 and QT8 constructs, the relationship between Dox concentration and gene expression induction was investigated. Specifically, the relationship was investigated in the same manner as in “Functional screening of PA-Tet-OFF candidate constructs” described above, except that HEK293T cells were seeded in a 24-well plate at 6×10^4 cells/well, the medium was replaced with a medium containing 25 μM BV and having Dox concentration described in Table 9 6 hours after transfection, the cells were irradiated with near-infrared light (750 nm, 4.0 mW/cm^2) for 42 hours by being exposed to light for 30 seconds every 180 seconds, and a 750 nm LED (SMBB750D-1100, manufactured by Ushio Inc.) was used as a light source. All experiments were performed in 3 independent trials (3 batches) to obtain consistent results.

[4] = tested on: pTREtight-Ub-ELuc reporter in HEK293T cells; assay: PA-Tet-independent / PA-Tet-ON construct luciferase assay with or without Dox (Example 3, Table 5); format: cell-based, human; conditions: first batch; for An initial construct screening result: Light (relative luminescence signal intensity): blue light
Experimental: For each construct, a plasmid containing the expression cassette was introduced into HEK293T cells together with a pTREtight-Ub-ELuc reporter, thereby obtaining transformed cells. These cells were irradiated with blue light in the absence of Dox or in the presence of Dox, and the light-dependent transcriptional activity of Ub-ELuc was investigated. All experiments were performed in 3 independent trials (3 batches) to obtain consistent results.

CIB1 = biological target: T1, CIB1; conditions: after light activation; cited from earlier work

Row | Molecule | Light ([3]; Dox 0 ng/mL) | Dark ([3]; Dox 1.0 ng/mL) | Light ([3]; Dox 1.0 ng/mL) | Dark ([3]; Dox 2.0 ng/mL) | Light ([3]; Dox 2.0 ng/mL) | Light ([3]; Dox 3.0 ng/mL) | Dark ([3]; Dox 4.0 ng/mL) | Light ([3]; Dox 4.0 ng/mL) | Dark ([3]; Dox 5.0 ng/mL) | Light ([3]; Dox 5.0 ng/mL) | Dark ([3]; Dox 10.0 ng/mL) | Light ([3]; Dox 10.0 ng/mL) | further results
1 | C[C@H]1c2cccc(O)c2C(=O)C2=C(O)[C@]3(O)C(=O)C(C(N)=O)=C(O)[C@@H](N(C)C)[C@@H]3[C@@H](O)[C@@H]21 [Dox, doxycycline] | – | – | – | – | – | – | – | – | – | – | – | – | duration of inhibition of light-induced luciferase expression [1]: 4 days; extremely low Dox concentration at which the effect brought about by Dox was observed ([2]; PA-Tet-OFF system): 1 ng/mL; extremely low Dox concentration at which the effect brought about by Dox was observed ([2]; PA-Tet-ON system): 10 ng/mL
2 | QT4: TetR(I194T)-SPKKK-HMEF-RpBphP1 + 2xNLS-p65AD-HMEF-Q-PAS1 (SEQ ID NO: 26, 27) | 17.7 | 0.2 | 0.2 | – | – | – | – | – | – | – | – | – | Light ([3]; Dox 0.025 ng/mL): 20.6; Light ([3]; Dox 0.050 ng/mL): 10.7; Dark ([3]; Dox 0.100 ng/mL): 0.5; Light ([3]; Dox 0.100 ng/mL): 10.1; Dark ([3]; Dox 0.200 ng/mL): 0.3; Light ([3]; Dox 0.200 ng/mL): 2.9; Dark ([3]; Dox 0.500 ng/mL): 0.2
3 | QT7: RpBphP1-TSTR-TetR(I194T) + p65AD-HMEF-Q-PAS1 (SEQ ID NO: 28, 29) | 53.7 | 2.9 | 29.9 | 2.7 | 34.7 | 25.0 | 1.3 | 17.6 | 1.6 | 16.4 | 0.3 | 3.7 | –
4 | QT8: RpBphP1-TSTR-TetR(I194T) + 2xNLS-p65AD-HMEF-Q-PAS1 (SEQ ID NO: 28, 27) | 152.0 | 14.5 | 143.1 | 17.1 | 112.2 | 108.7 | 15.1 | 86.8 | 15.2 | 63.9 | 3.1 | 7.2 | Dark ([3]; Dox 3.0 ng/mL): 16.0
5 | T86: TetR(I194T)-SPKKK-CIBN no NLS + Cry2 PHR (L348F)-p65 AD-NLSx2 (Element #1 SEQ ID NO: 5, Element #2 SEQ ID NO: 6) [Construct T86] | – | – | – | – | – | – | – | – | – | – | – | – | An initial construct screening result: Light (relative luminescence signal intensity) ([4]; Dox 0 ng/mL): 12.3; An initial construct screening result: Light (relative luminescence signal intensity) ([4]; Dox 75 ng/mL): 0.1; An initial construct screening result: Dark (relative luminescence signal intensity) ([4]; Dox 75 ng/mL, dark): 0.1
6 | B1 | – | – | – | – | – | – | – | – | – | – | – | – | half-life of spontaneous dissociation from CIB1 (CIB1): about 5.5 minutes

Reference: patent US12338443B2, “Photoactivatable Tet expression control system” (JAPAN SCIENCE AND TECHNOLOGY AGENCY, priority 2018, dated 2025)
